Experiments:
[1] = target: T1, human Kv3.2 channels (hKv3.2) (Homo sapiens, UniProt Q96PR1); experiment: IonWorks Quattro electrophysiology, hKv3.2 currents, activation time constant (Tauact); type: cell-based; settings: hKv3.2, -15 mV pulse; compound 6.25 μM (concentration giving ~0.3 nA current)
T1 construct: expressed in transfected cells
T1 sequence (Q96PR1 1-638): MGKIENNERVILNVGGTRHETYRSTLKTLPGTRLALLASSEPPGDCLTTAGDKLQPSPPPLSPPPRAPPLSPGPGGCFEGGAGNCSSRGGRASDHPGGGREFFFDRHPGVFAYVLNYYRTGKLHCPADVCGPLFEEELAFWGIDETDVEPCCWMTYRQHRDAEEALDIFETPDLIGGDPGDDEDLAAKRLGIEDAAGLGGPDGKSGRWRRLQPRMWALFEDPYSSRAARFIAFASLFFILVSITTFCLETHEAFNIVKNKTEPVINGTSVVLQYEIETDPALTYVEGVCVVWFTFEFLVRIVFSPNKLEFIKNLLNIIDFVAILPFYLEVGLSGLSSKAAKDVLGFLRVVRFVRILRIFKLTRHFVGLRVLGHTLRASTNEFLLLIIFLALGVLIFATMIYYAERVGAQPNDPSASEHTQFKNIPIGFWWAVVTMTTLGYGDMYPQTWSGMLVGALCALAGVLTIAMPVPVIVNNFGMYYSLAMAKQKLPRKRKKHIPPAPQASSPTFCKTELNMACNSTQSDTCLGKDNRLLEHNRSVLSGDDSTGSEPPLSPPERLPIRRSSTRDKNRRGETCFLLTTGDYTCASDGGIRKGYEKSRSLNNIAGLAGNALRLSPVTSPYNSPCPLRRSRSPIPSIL
Experimental: The ability of the compounds of the disclosure to modulate the voltage-gated potassium channel subtypes Kv3.2/3.1 may be determined using the following assay.
To assess compound effects on human Kv3.2 channels (hKv3.2), a stable cell line expressing hKv3.2 was created by transfecting Chinese Hamster Ovary (CHO)-K1 cells with a pCIH5-hKv3.2 vector. Cells were cultured in DMEM/F12 medium supplemented by 10% Foetal Bovine Serum, 1× non-essential amino acids (Invitrogen) and 500 ug/ml of Hygromycin-B (Invitrogen). Cells were grown and maintained at 37° C. in a humidified environment containing 5% CO2 in air.
The day of the experiment, cells were removed from the incubator and the culture medium removed. Cells were washed with 5 ml of Dulbecco's PBS (DPBS) calcium and magnesium free and detached by the addition of 3 ml Versene (Invitrogen, Italy) followed by a brief incubation at 37° C. for 5 minutes. The flask was tapped to dislodge cells and 10 ml of DPBS containing calcium and magnesium was added to prepare a cell suspension. The cell suspension was then placed into a 15 ml centrifuge tube and centrifuged for 2 min at 1200 rpm. After centrifugation, the supernatant was removed and the cell pellet re-suspended in 4 ml of DPBS containing calcium and magnesium using a 5 ml pipette to break up the pellet. Cell suspension volume was then corrected to give a cell concentration for the assay of approximately 3 million cells per ml.
Experiments were conducted at room temperature using IonWorks Quattro™ planar array electrophysiology technology (Molecular Devices Corp.) with PatchPlate™ PPC. Stimulation protocols and data acquisition were carried out using a microcomputer (Dell Pentium 4). Planar electrode hole resistances(Rp) were determined by applying a 10 mV voltage step across each well. These measurements were performed before cell addition. […] Following this, amphotericin-B solution was added to the intracellular face of the electrode to achieve intracellular access. Cells were held at −70 mV. Leak subtraction was conducted in all experiments by applying 50 ms hyperpolarizing (10 mV) prepulses to evoke leak currents followed by a 20 ms period at the holding potential before test pulses. From the holding potential of −70 mV, a first test pulse to −15 mV was applied for 100 ms and following a further 100 ms at −70 mV, a second pulse to 40 mV was applied for 50 ms. Cells were then maintained for a further 100 ms at −100 mV and then a voltage ramp from −100 mV to 40 mV was applied over 200 ms. In all experiments, the test pulses protocol was performed in the absence (pre-read) and presence (post-read) of the test compound. Pre- and post-reads were separated by the compound addition followed by a 3 minute incubation.
The intracellular solution contained the following (in mM): K-gluconate 100, KCl 54, MgCl2 3.2, HEPES 5, adjusted to pH 7.3 with KOH. Amphotericin-B solution was prepared as 50 mg/ml stock solution in DMSO and diluted to a final working concentration of 0.1 mg/ml in intracellular solution.
The final assay dilution was 200 and the final compound concentrations were in the range 50 μM to 50 nM.
The recordings were analysed and filtered using both seal resistance (>20 MΩ) and peak current amplitude (>500 pA at the voltage step of 40 mV) in the absence of compound to eliminate unsuitable cells from further analysis. Kv3 channel-mediated outward currents were measured determined from the mean amplitude of the current over the final 10 ms of the −15 mV voltage pulse minus the mean baseline current at −70 mV over a 10 ms period just prior to the −15 mV step. This Kv3 channel currents following addition of the test compound were then compared with the currents recorded prior to compound addition. […] The normalised data were analysed using ActivityBase or Excel software.

Adult male CD rats = experiment: Assessment of physiological sleep in the rat (EEG/EMG telemetry); type: in vivo; settings: 60 mg/kg oral at CT18, 5 hour period following dosing
Experimental: Adult male CD rats (C. River, Italy) were implanted with telemetric probes and housed singly, under controlled condition (temperature 18-20° C.; relative humidity 45-50%; 12 hours light-dark cycle, lights on at 3 p.m., designated Circadian Time (CT) 0) with free access to food and water.
Reference Example RE1 was formulated in tween (0.1% v/v) and HPMC (0.5% v/v) and was administered orally at doses of 10, 30 and 60 mg/kg (vol. 2 ml/kg) at CT18 (6 hours before lights on). The electroencephalogram (EEG) and electromyogram (EMG) were recorded continuously, starting immediately after administration, using telemetric apparatus (DSI Dataquest® A.R.T. system). EEG and EMG recordings were analysed to evaluate sleep patterns using sleepSign® (Kissei Comtec Co.). Statistical analyses (1-way Anova followed by a Dunnett's test) was performed using Statistica-8 software.

SMILES: CC[C@H]1NC(=O)N(c2ccc(Oc3ccc(C)c(OC)c3)nc2)C1=O [RE1, (5R)-5-ethyl-3-(6-{[4-methyl-3-(methyloxy)phenyl]oxy}-3-pyridinyl)-2,4-imidazolidinedione]
- Tauact mean [1]: 9.9 ms
- time spent in REM sleep (Adult male CD rats): did not affect
- time spent in non-REM sleep (Adult male CD rats; p<0.05, n=8): significantly increased
- total sleep time (Adult male CD rats; p<0.05, n=8): significantly increased
